# Assay: in vitro
# Details: human, hela cells, % viability
row,Structure (SMILES),"viability at 28.5 h, 10 µM"
1,CN(c1ccc(C(=O)Nc2ccc(S(=O)(=O)N3CCOCC3)cc2)cc1)S(=O)(=O)c1ccccc1 [CBK264129],96.7%
2,COc1cc(S(=O)(=O)Oc2ccc(OCc3ccccc3)cc2)ccc1Cl [CBK264132],92.2%
3,O=C(CCSc1ccc(Cl)cc1)Nc1ccc(S(=O)(=O)N2CCOCC2)cc1 [CBK264133],95.5%
4,O=C(COc1ccc2ccccc2c1Br)Nc1ccc(S(=O)(=O)N2CCCC2)cc1 [CBK264135],99.3%
5,COc1ccc(Cl)cc1N(CC(=O)Nc1ccccc1C(=O)O)S(C)(=O)=O [CBK264137],96.9%
6,Cc1c(NC(=O)C2CN(S(=O)(=O)c3ccccc3)CCN2S(=O)(=O)c2ccccc2)c(=O)n(-c2ccccc2)n1C (centres unmarked) [CBK264138],98%
7,Cc1ccc(S(=O)(=O)N(CC(=O)NCC2CCCO2)c2ccccc2)cc1 (centres unmarked) [CBK264140],90.9%
8,COc1ccc(S(=O)(=O)N(CC(=O)Nc2ccc(F)cc2)c2ccccc2)cc1 [CBK264141],96.5%
9,O=C(CSc1nsc(SCC(=O)c2ccccc2)n1)c1ccccc1 [CBK264142],120%
10,Cc1ccc(C(=O)NCCNS(=O)(=O)c2ccccc2)cc1 [CBK264145],88.8%
11,CC(C)(C)C1CCc2c(sc(NC(=O)CCC(=O)O)c2C(=O)Nc2ccccc2Cl)C1 (centres unmarked) [CBK264146],87.2%
12,C/C=C/c1ccc(OCCCSc2ccc(Cl)cc2)c(OC)c1 [CBK264147],97.5%
13,O=S(=O)(c1ccc2ccccc2c1)N1CCN(C2CCC(c3ccccc3)CC2)CC1 (centres unmarked) [CBK264152],103%
14,O=C(COc1ccc(-c2ccccc2)cc1)N1CCN(S(=O)(=O)c2ccccc2[N+](=O)[O-])CC1 [CBK264154],93%
15,O=C(O)CCC(C(=O)O)N1C(=O)c2cc(Cl)c(Cl)cc2C1=O (centres unmarked) [CBK264156],113%
16,COc1ccc(N2CCN(c3nc(N4CCOCC4)nc(N4CCOCC4)n3)CC2)cc1 [CBK264166],100%
17,CC(C)(C)c1ccc(C(=O)NC(=S)Nc2ccc(O)c(-c3nc4cc(Cl)ccc4o3)c2)cc1 [CBK264169],88%
18,CC(=O)Nc1ccc(S(=O)(=O)N2CCN(Cc3ccccc3[N+](=O)[O-])CC2)cc1 [CBK264170],89.3%
19,O=C(Nc1ccc(Cl)cc1)C(Cc1ccccc1)N1C(=O)c2cc(Cl)c(Cl)cc2C1=O (centres unmarked) [CBK264172],99.2%
20,Cc1cccc(NC(S)=NCc2ccccn2)c1 [CBK264174],104%
21,Cc1ccc(C(=O)COC(=O)C(Cc2ccccc2)N2C(=O)c3cc(Cl)c(Cl)cc3C2=O)cc1 (centres unmarked) [CBK264176],109%

row,Structure (SMILES),"viability at 28.5 h, 10 µM"
1,CCCCn1c(NCc2nc3ccccc3n2C)nc2ccccc21 [CBK264177],87.2%
2,COc1ccc(C2NCCc3c2[nH]c2ccccc32)cc1CN1CCN(c2ccc(F)cc2)CC1 (centres unmarked) [CBK264178C],81.7%
3,COc1cc(NC(=O)COc2ccc3ccccc3c2)c(C(=O)O)cc1OC [CBK264181],103%
4,COc1cc(C(=O)N2CCN(S(=O)(=O)c3ccccc3[N+](=O)[O-])CC2)cc(OC)c1OC [CBK264182],105%
5,N=C(N)NS(=O)(=O)c1ccc(N/C=C\C(=O)c2ccncc2)cc1 [CBK264185],91.8%
6,O=S(=O)(c1ccc2ccccc2c1)N1CCN(C2CCCCCCC2)CC1 [CBK264186G],98.3%
7,COc1ccc(OC)c(-c2nc(Nc3ccccc3Cl)sc2CC(=O)O)c1 [CBK264190],96.4%
8,Cc1ccc(C)c(NC(=O)CN(Cc2ccc(Cl)c(Cl)c2)S(=O)(=O)c2ccccc2)c1 [CBK264191],107%
9,CCOC(=O)C1CCCN(CCC(=O)Nc2ccccc2)C1 (centres unmarked) [CBK264192C],91.7%
10,COc1cc(NC(=O)CCN2CCN(C)CC2)cc(OC)c1 [CBK264193],92.5%
11,COc1ccccc1CC(=O)Nc1ccc(OCC(=O)O)cc1 [CBK264194],99.1%
12,Cc1ccccc1OCCNS(=O)(=O)c1cccc([N+](=O)[O-])c1 [CBK264195],106%
13,O=C(c1ccncc1)N1CCN(S(=O)(=O)c2ccccc2[N+](=O)[O-])CC1 [CBK264196],92.6%
14,CN1CCN(CCC(=O)Nc2ccc3c(c2)CCC3)CC1 [CBK264197],95.3%
15,Cc1ccc(S(=O)(=O)N(C)CC(=O)N(C)Cc2ccccc2)cc1 [CBK264201],95.5%
16,O=C(CCN1CCc2ccccc2C1)Nc1ccccc1F [CBK264202],94.9%
17,COc1ccc(CN2CCN(S(=O)(=O)c3ccc(Cl)cc3)CC2)cc1OC [CBK264204G],104%
18,COc1cccc(NC(=O)CCN2CCN(CCO)CC2)c1 [CBK264207C],88.3%
19,O=C(c1cccnc1)N1CCN(S(=O)(=O)c2ccc(F)cc2)CC1 [CBK264210],92.8%
20,COc1ccc(OCC(=O)N2CCN(S(=O)(=O)c3ccccc3[N+](=O)[O-])CC2)cc1 [CBK264213],93.5%
21,Cc1ccc(S(=O)(=O)Nc2ccccc2CNc2ccc(Br)cc2)cc1 [CBK264214],94.5%

row,Structure (SMILES),"viability at 28.5 h, 10 µM"
1,O=C(O)CCC(=O)Nc1ccc(OC(F)F)cc1 [CBK264222],99.8%
2,Cc1c(C(=O)NC(=S)Nc2ccc(O)c(-c3nc4ccccc4s3)c2)oc2ccccc12 [CBK264223],93.2%
3,COc1ccc(CN2CCN(Cc3ccco3)CC2)cc1OCc1ccccc1 [CBK264225],105%
4,O=C(O)c1ccc(S(=O)(=O)c2ccc3c(c2)C(=O)N(NC(=O)c2ccc(O)cc2)C3=O)cc1 [CBK264229],102%
5,CC(=O)Nc1ccc(S(=O)(=O)N2CCN(Cc3ccc([N+](=O)[O-])cc3)CC2)cc1 [CBK264231G],94.3%
6,Cc1cc2nc(SCc3nc4ccccc4[nH]3)[nH]c2cc1C [CBK264233],97.4%
7,O=[N+]([O-])c1ccccc1S(=O)(=O)N1CCN(S(=O)(=O)c2ccc(F)cc2)CC1 [CBK264236],92.7%
8,c1ccc(CCCN2CCN(Cc3cccc4ccccc34)CC2)cc1 [CBK264237],103%
9,COc1ccc(CC(=O)Nc2ccc(OCC(=O)O)cc2)cc1 [CBK264244],103%
10,COc1ccc(N2CCN(c3nc(OC)nc(OC)n3)CC2)cc1 [CBK264245],100%
11,COc1cc(/C=N/n2cnnc2)ccc1OCc1cccc(C(=O)O)c1 [CBK264249],108%
12,O=C(O)COc1ccc(NC(=O)C(c2ccccc2)c2ccccc2)cc1 [CBK264250],99.6%
13,CCOC(=O)C1CCN(CCC(=O)Nc2ccc(F)c(F)c2)CC1 [CBK264252],112%
14,CC(C)CC(C(=O)Nc1ccc(Br)cc1)N1C(=O)c2ccccc2C1=O (centres unmarked) [CBK264253],94.1%
15,COc1ccccc1N1CCN(CCC(=O)Nc2cccc(F)c2)CC1 [CBK264254C],92.8%
16,CCc1ccc(-n2nc3ccc(NC(=S)NC(=O)c4cc5ccccc5o4)cc3n2)cc1 [CBK264258],101%
17,O=C(O)COc1ccc(N2C(=O)c3ccc(Oc4cccc([N+](=O)[O-])c4)cc3C2=O)cc1 [CBK264259],107%
18,O=C(CCN1CCN(Cc2ccccc2)CC1)Nc1ccc(F)cc1 [CBK264261],77%
19,CCOC(=O)c1c(NC(=O)C2CC(Cl)=CCC2C(=O)O)sc2c1CCCCC2 (centres unmarked) [CBK264263],90.2%
20,C(=C\CSC1=NCCN1)/CSC1=NCCN1 [CBK264266],107%
21,Cc1ccc(OCC(=O)N2CCN(S(=O)(=O)c3ccc([N+](=O)[O-])cc3)CC2)cc1 [CBK264267],103%

row,Structure (SMILES),"viability at 28.5 h, 10 µM"
1,COc1cc(CN2CCN(S(=O)(=O)c3ccc(F)cc3)CC2)cc(OC)c1O [CBK264269G],103%
2,CCC(C)N1CCN(S(=O)(=O)c2ccccc2[N+](=O)[O-])CC1 (centres unmarked) [CBK264270G],97.2%
3,CC(=O)Nc1ccc(S(=O)(=O)N2CCN(S(=O)(=O)c3ccc(C)cc3)CC2)cc1 [CBK264276],101%
4,CC(C)COc1ccc(-c2nn(-c3ccccc3)cc2CSC(=N)N)cc1 [CBK264278C],0.298%
5,CCS(=O)(=O)N1CCN(Cc2ccccc2OC)CC1 [CBK264280G],92.7%
6,CC(OC(=O)c1ccc(O)cc1)C(=O)Nc1ccc(Cl)c(Cl)c1 (centres unmarked) [CBK264281],96.4%
7,CCOC(=O)C1CCCN(CCC(=O)Nc2cc(C)ccc2C)C1 (centres unmarked) [CBK264287C],95.7%
8,CCCS(=O)(=O)N1CCN(C(=O)COc2ccc3ccccc3c2)CC1 [CBK264290],95.4%
9,COc1ccc(NC(=S)NCCCN(C)C)cc1 [CBK264292],96.2%
10,O=C(/C=C/c1ccc(Cl)cc1Cl)NCCNc1c(Cl)cccc1[N+](=O)[O-] [CBK264295],110%
11,O=[N+]([O-])c1ccccc1S(=O)(=O)N1CCN(S(=O)(=O)c2ccc3ccccc3c2)CC1 [CBK264296],107%
12,O=C(c1cccnc1)N1CCN(S(=O)(=O)c2ccc([N+](=O)[O-])cc2)CC1 [CBK264300],92.5%
13,Cc1ccc(C(=O)C(C)OC(=O)c2ccc(NC(=O)c3ccccc3)cc2)cc1 (centres unmarked) [CBK264302],100%
14,COc1ccc(C2NCCc3c2[nH]c2ccccc32)cc1CSc1nc2ccccc2s1 (centres unmarked) [CBK264303C],96.8%
15,O=C(CSc1ccc(Cl)cc1)OCC(=O)c1ccccc1 [CBK264306],106%
16,O=C(O)CCC(C(=O)O)N1C(=O)c2c(Cl)c(Cl)c(Cl)c(Cl)c2C1=O (centres unmarked) [CBK264308],102%
17,O=[N+]([O-])c1ccc(S(=O)(=O)N2CCN(S(=O)(=O)c3ccc(Cl)cc3)CC2)cc1 [CBK264312],118%
18,CC(=O)Nc1ccc(S(=O)(=O)N2CCN(S(=O)(=O)c3ccccc3[N+](=O)[O-])CC2)cc1 [CBK264314],104%

# Same assay, conditions: human, hela cells, % viability, bulk resorufin, single well
row,Structure (SMILES),"viability at 28.5 h, 10 µM"
1,O=C1NC(=S)N(c2ccccc2)C(=O)/C1=C\c1ccc(OCc2ccccc2)c(C(=O)O)c1 [CBK264265],99.1%
2,Cc1cc(/C=C2\C(=O)NC(=O)N(C)C2=O)c(C)n1-c1ccc(Oc2ccc([N+](=O)[O-])cn2)cc1 [CBK264294],100%

# — paper PMC12040169 (PLOS Biology, 2025)
